Laboratory results from US8440724B2, “Inhibiting neurotransmitter reuptake” (Mayo Foundation for Medical Education and Research, priority 2008, dated 2013).

What was measured:
hSERT, hNET, hDAT = experiment: Human transporter binding: rank order and range of potency over the three transporters; conditions: for Potency (rank-order of potency of binding; S = hSERT, N = hNET, D = hDAT): from KD values
Excerpt: The program was modified to calculate the Hill coefficient (nH). Data are presented as geometric mean±S.E.M. of at least three independent experiments. One-component models and two-component models were compared using the root mean square error of each fit and the F test.

[1] = test system: rat 5-HT, NE and DA transport, synaptosomal preparations; experiment: Rat brain synaptosomal transport: rank order of potency; type: biochemical; conditions: from Ki values; S = 5HT, N = NE, D = DA
Description: (§1) The dissected tissues were separately homogenized in 20 volumes (cortical) or 40 volumes (striatal) of ice-cold, oxygenated HEPES buffer 0.32 M sucrose containing 11 mM glucose (pH 7.4) in a glass Potter-Elvehjem homogenizer with Teflon® pestle (8 strokes, 900 rpm). The homogenates were centrifuged at 1,000×g for 10 minutes. The resulting supernatant was decanted and further centrifuged at 20,000×g for 20 minutes at 4° C. […] The synaptosomal protein concentration was determined by using the BCA assay (Pierce Biotechnology Inc, Rockford, Ill.), according to the manufacturer's instructions. Synaptosomal protein (1.0-2.5 mg) was suspended in 1 mL oxygenated incubation buffer as defined above. Test amine compound was pre-incubated with the synaptosomal preparation for 30 minutes at 37° C. in a shaking water bath (80 oscillations/minute).

male C57BL/6J mice = experiment: Tail suspension test (TST) in mice; type: in vivo, mouse; conditions: mice, 15 mg/kg IP, FIG. 10A
Description: When mice are suspended by their tail, there is an initial period of agitation, followed by immobility. This test identifies antidepressant compounds, which decrease the duration of immobility.
Test compounds were prepared by formulating the compounds with a pharmaceutically acceptable carrier such as saline. […] Each mouse was then subjected to the tail-suspension test (TST). Each mouse (n>3) was suspended by its tail 45 cm above the table top with the use of adhesive tape placed 1 cm from the tip of its tail. Behavior was scored every 5 seconds throughout the 6-minute test as either mobile or immobile (FIG. 10A-D) or total duration of immobility during the 6-minute test (FIGS. 10E and 10H). Mice were considered immobile only when hanging passively and completely motionless. Scores for each behavior were expressed as total counts per 6-minute session.

mice = experiment: Locomotor activity in motility chamber, mice; type: in vivo, mouse; conditions: 10 minute intervals for 3 hours, FIG. 11
Male Sprague-Dawley rats = experiment: Forced swim test in rats; type: in vivo, rat; conditions: 15 mg/kg IP, FIG. 12A
Description: When rats are placed in a cylinder of water from which they cannot escape, they will remain immobile in the water for the majority of the test.
Water was changed between trials, and the procedure involved a pretest and a 5-minute test separated by 24 hours. During the pretest, rats (adapted to the experimental room for no less than one hour) were placed in the cylinder for 15 minutes. Following this initial exposure, the rats were dried with towels and transferred to a “drying cage” situated under a warming lamp. […] The following day, rats were transferred to the experimental room and acclimated for at least one hour.
The rat was considered immobile when floating motionless or making only those movements necessary to keep its head above the surface of the water. Scores for each behavior (swimming or immobility) were expressed as total counts per 5-minute session. Statistical analysis was performed using ANOVA followed by the Tukey test for post-hoc comparisons.

[2] = target: T1, human serotonin transporter (hSERT) (Homo sapiens, UniProt P31645); experiment: Radioligand binding to cloned hSERT, [3H]citalopram, HEK-293 cell membranes; conditions: Geometric Mean ± SEM; HCl salts; read-out: Equilibrium Dissociation Constant (KD) for Transporter Binding, hSERT (S)
T1 construct: expressed in transfected cells; host or cells: HEK-293, stably transfected
T1 sequence (P31645 whole entry): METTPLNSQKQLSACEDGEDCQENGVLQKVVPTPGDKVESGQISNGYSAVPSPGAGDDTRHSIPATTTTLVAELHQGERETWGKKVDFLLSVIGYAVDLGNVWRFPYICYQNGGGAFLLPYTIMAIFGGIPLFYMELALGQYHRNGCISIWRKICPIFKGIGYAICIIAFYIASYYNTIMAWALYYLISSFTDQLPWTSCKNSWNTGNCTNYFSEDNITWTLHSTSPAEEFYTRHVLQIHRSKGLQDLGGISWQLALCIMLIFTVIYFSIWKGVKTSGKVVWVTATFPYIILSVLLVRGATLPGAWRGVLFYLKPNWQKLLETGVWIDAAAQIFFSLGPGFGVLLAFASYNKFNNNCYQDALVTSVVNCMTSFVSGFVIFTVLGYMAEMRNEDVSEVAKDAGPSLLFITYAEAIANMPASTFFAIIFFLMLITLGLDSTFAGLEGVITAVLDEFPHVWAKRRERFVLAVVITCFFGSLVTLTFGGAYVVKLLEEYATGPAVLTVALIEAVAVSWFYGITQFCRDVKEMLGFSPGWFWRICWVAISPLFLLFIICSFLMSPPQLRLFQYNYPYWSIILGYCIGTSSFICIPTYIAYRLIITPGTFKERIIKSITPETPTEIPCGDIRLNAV

[3] = target: T2, human dopamine transporter (hDAT) (Homo sapiens, UniProt Q01959); experiment: Radioligand binding to cloned hDAT, [3H]WIN35428, HEK-293 cell membranes; conditions: Geometric Mean ± SEM; HCl salts; read-out: Equilibrium Dissociation Constant (KD) for Transporter Binding, hDAT (D)
T2 construct: expressed in transfected cells; host or cells: HEK-293, stably transfected
T2 sequence (Q01959 whole entry): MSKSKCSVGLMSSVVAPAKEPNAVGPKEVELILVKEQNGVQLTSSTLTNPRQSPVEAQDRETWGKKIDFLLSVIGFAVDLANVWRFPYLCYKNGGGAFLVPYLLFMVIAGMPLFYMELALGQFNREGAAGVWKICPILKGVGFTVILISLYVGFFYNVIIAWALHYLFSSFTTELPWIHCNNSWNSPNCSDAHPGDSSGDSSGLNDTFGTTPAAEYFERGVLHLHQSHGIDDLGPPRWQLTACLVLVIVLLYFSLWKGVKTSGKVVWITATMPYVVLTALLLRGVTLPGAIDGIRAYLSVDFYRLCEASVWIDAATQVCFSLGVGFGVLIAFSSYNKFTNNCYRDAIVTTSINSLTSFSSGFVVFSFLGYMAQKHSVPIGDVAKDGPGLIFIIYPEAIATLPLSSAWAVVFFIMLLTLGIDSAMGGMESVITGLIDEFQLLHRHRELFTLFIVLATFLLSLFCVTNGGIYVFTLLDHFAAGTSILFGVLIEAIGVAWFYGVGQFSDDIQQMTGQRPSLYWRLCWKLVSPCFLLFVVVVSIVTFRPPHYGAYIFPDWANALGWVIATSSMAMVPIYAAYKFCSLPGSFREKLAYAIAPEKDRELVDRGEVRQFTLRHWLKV

[4] = test system: human serotonin, norepinephrine and dopamine transporters; experiment: Transport into cells expressing human transporters: rank order of potency, comparison with rat; type: cell-based; conditions: from Ki values; S = 5-HT, N = NE, D = DA
[5] = target: T3, rat serotonin transporter, synaptosomal preparations (Rattus norvegicus, UniProt P31652); experiment: Inhibition of [3H]5-HT reuptake in rat brain synaptosomes (frontal cortex); type: biochemical; conditions: Geometric Mean ± SEM; rat brain synaptosomes; read-out: Inhibitor Constant (Ki), 5HT transport
T3 construct: from tissue; host or cells: rat frontal cortex synaptosomes (male Sprague-Dawley)
T3 sequence (P31652 whole entry): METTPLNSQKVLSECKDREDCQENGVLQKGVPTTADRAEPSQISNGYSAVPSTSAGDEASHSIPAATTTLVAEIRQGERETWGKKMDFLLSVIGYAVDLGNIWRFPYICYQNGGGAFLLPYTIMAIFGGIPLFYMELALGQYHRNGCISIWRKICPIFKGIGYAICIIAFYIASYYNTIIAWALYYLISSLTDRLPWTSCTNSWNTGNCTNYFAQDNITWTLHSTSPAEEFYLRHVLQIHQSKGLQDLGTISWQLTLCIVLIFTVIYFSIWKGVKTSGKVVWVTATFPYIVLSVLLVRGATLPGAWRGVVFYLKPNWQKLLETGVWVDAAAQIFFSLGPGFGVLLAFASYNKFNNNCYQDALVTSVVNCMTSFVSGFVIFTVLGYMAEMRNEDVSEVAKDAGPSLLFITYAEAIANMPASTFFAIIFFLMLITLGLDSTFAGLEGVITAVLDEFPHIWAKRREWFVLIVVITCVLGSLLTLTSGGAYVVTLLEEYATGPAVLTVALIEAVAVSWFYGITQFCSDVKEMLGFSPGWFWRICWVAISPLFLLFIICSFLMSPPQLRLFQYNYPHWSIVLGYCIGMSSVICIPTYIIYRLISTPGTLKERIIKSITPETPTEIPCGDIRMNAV
Description: as §1

[6] = target: T4, rat norepinephrine transport, synaptosomal preparations (Rattus norvegicus, UniProt Q63380); experiment: Inhibition of [3H]NE reuptake in rat brain synaptosomes (occipital cortex); type: biochemical; conditions: Geometric Mean ± SEM; rat brain synaptosomes; read-out: Inhibitor Constant (Ki), NE transport
T4 construct: from tissue; host or cells: rat occipital cortex synaptosomes (male Sprague-Dawley)
T4 sequence (Q63380 1-617): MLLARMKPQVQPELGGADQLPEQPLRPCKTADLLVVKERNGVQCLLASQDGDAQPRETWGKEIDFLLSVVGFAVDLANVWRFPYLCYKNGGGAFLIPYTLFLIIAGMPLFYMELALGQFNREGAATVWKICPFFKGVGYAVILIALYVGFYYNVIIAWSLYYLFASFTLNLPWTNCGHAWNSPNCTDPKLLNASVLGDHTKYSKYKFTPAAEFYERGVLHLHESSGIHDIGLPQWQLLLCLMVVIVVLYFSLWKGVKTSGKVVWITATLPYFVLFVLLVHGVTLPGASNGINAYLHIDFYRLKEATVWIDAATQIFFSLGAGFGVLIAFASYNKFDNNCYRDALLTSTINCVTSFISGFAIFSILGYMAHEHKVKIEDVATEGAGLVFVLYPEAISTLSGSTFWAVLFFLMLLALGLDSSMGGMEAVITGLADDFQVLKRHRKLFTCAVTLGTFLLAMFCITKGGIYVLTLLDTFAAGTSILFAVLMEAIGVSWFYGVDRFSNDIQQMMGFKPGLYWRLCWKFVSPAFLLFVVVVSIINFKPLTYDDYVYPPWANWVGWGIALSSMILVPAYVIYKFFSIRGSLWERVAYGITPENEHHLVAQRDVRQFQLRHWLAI
Description: as §1

[7] = target: T5, rat dopamine transporter, synaptosomal preparations (Rattus norvegicus, UniProt P23977); experiment: Inhibition of [3H]DA reuptake in rat brain synaptosomes (striatum); type: biochemical; conditions: Geometric Mean ± SEM; rat brain synaptosomes; read-out: Inhibitor Constant (Ki), DA transport
T5 construct: and striatal tissues for transport of dopamine; from tissue; host or cells: rat striatum synaptosomes (male Sprague-Dawley)
T5 sequence (P23977 whole entry): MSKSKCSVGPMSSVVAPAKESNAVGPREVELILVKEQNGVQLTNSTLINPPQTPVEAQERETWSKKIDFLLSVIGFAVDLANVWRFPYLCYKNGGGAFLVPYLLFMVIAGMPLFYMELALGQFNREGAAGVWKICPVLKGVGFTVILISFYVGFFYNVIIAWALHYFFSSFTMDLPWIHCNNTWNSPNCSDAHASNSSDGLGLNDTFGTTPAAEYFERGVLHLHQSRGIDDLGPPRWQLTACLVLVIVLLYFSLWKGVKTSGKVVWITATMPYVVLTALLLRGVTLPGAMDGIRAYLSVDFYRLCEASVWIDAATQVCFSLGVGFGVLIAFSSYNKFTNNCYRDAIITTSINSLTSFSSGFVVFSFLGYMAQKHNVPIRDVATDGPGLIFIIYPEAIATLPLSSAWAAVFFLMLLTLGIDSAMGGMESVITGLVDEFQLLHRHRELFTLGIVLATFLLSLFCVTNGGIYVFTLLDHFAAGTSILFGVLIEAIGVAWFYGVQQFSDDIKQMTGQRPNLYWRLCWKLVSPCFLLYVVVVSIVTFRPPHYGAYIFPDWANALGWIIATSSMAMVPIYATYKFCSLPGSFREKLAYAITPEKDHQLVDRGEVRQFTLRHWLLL
Description: as §1

[8] = target: human norepinephrine transporter (Homo sapiens, UniProt P23975); experiment: Inhibition of [3H]NE transport into HEK-293 cells expressing the human transporter; conditions: read-out: Inhibitor Constant (Ki), NE transport; Geometric Mean ± SEM; HEK-293 whole cells
human norepinephrine transporter, sequence (P23975 whole entry): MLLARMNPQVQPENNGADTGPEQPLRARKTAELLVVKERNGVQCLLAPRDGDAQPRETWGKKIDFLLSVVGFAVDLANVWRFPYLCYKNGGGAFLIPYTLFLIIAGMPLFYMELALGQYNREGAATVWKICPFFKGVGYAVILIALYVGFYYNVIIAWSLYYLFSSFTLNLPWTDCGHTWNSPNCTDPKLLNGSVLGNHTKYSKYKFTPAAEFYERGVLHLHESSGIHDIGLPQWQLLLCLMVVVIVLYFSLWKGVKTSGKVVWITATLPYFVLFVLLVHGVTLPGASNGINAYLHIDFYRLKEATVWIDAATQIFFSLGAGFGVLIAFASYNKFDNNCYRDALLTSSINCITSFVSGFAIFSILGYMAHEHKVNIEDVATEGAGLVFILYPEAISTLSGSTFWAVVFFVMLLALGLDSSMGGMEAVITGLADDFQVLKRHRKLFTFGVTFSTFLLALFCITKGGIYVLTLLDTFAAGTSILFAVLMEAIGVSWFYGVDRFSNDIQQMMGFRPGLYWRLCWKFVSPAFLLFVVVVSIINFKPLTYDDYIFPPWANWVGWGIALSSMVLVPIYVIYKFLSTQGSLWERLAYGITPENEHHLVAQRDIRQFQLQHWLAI

[9] = target: human dopamine transporter (Homo sapiens, UniProt Q01959); experiment: Inhibition of [3H]DA transport into HEK-293 cells expressing the human transporter; conditions: read-out: Inhibitor Constant (Ki), DA transport; Geometric Mean ± SEM; HEK-293 whole cells
human dopamine transporter, sequence (Q01959 whole entry): as the sequence (Q01959 whole entry) above

[10] = target: human serotonin transporter (Homo sapiens, UniProt P31645); experiment: Inhibition of [3H]5-HT transport into HEK-293 cells expressing the human transporter; conditions: read-out: Inhibitor Constant (Ki), 5-HT transport; Geometric Mean ± SEM; HEK-293 whole cells
human serotonin transporter, sequence (P31645 whole entry): as the sequence (P31645 whole entry) above

## CN(C)CCCN1c2ccccc2CCc2ccccc21 [Imipramine, reference compound]
hSERT, hNET, hDAT
  Potency (rank-order of potency of binding; S = hSERT, N = hNET, D = hDAT): S > N > D
[1]
  Potency (rank order, transport into rat brain synaptosomal preparations): N > S > D
Male C57BL/6J mice; 30 minutes before testing
  Mobility in TST (counts per 6-minute session) vs saline: significantly (P<0.02) increased mobility
Male C57BL/6J mice
  Immobility in TST (counts per 6-minute session) vs saline: significantly (P<0.02) reduced immobility
mice; 15 mg/kg IP
  Effect on locomotor activity: Only d-amphetamine caused a significant effect on locomotor activity
Male Sprague-Dawley rats
  Immobility in forced swim test vs saline: statistically (P<0.04) less immobility
  Swimming in forced swim test vs saline: statistically (P<0.04) more swimming behavior

## C[C@H](N)Cc1ccccc1 [d-amphetamine, reference compound]
mice; 5 mg/kg IP
  Effect on locomotor activity: caused a significant effect on locomotor activity

## CNCC(c1ccc2ccccc2c1)C(OC)c1ccccc1 (racemic) [MCJ001-OMe-(±)-SR, (2R,3S/2S,3R)-3-methoxy-N-methyl-2-(naphthalen-2-yl)-3-phenylpropan-1-amine]
[2]
  Kd: 710 ± 50 nM
[3]
  Kd: 600 ± 100 nM
hSERT, hNET, hDAT
  Potency (rank-order of potency of binding; S = hSERT, N = hNET, D = hDAT): N = D > S
hSERT, hNET, hDAT; ratio of KD over hSERT, hNET, hDAT
  Potency Range (difference between most potent and least potent binding): 1.2 fold
[4]
  Potency (rank order, transport into cells expressing human transporters): N > S > D
[5]
  Ki: 90 ± 36 nM
[6]
  Ki: 210 ± 30 nM
[7]
  Ki: 1030 ± 30 nM
[1]
  Potency (rank order, transport into rat brain synaptosomal preparations): S > N > D
[8]
  Ki: 20 ± 1 nM
[9]
  Ki: 2400 nM
[10]
  Ki: 60 ± 7 nM
